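Grown in 96-well plates, cells were treated for 48 hours with each compound at five concentrations. Insufficient inhibition: endpoint recorded as highest concentration tested. GI50 is the concentration that inhibits growth by half.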 Active and inactive are the calls of the source. Cut-off read from the data, not from the text of the source: active = GI50 up to about 1.1 µM and inactive = higher.
Assays:
Experiment in all cases: NCI anticancer screen, dose series, 48 h
786-0 = tested on: 786-0
CAKI-1 = tested on: CAKI-1
COLO 205 = tested on: COLO 205
DU-145 = tested on: DU-145
HCC 2998 = tested on: HCC 2998
HOP-92 = tested on: HOP-92
Hs-578T = tested on: Hs-578T
K562 = tested on: K562
KM12 = tested on: KM12
MOLT-4 = tested on: MOLT-4
NCI-H23 = tested on: NCI-H23
NCI-H460 = tested on: NCI-H460
OVCAR-5 = tested on: OVCAR-5
RPMI-8226 = tested on: RPMI-8226
RXF 393 = tested on: RXF 393
SF-539 = tested on: SF-539
SK-MEL-5 = tested on: SK-MEL-5
SK-OV-3 = tested on: SK-OV-3
TK-10 = tested on: TK-10
SK-MEL-2 = tested on: SK-MEL-2

| SMILES | GI50 (786-0) | GI50 (CAKI-1) | GI50 (COLO 205) | GI50 (DU-145) | GI50 (HCC 2998) | GI50 (HOP-92) | GI50 (Hs-578T) | GI50 (K562) | GI50 (KM12) | GI50 (MOLT-4) | GI50 (NCI-H23) | GI50 (NCI-H460) | GI50 (OVCAR-5) | GI50 (RPMI-8226) | GI50 (RXF 393) | GI50 (SF-539) | GI50 (SK-MEL-5) | GI50 (SK-OV-3) | GI50 (TK-10) | GI50 (SK-MEL-2) |
| --- | --- | --- | --- | --- | --- | --- | --- | --- | --- | --- | --- | --- | --- | --- | --- | --- | --- | --- | --- | --- |
| COc1cc(OC)c2c(=O)c(O)c(-c3ccc(OC)c(OC)c3)oc2c1 | 6.87 µM (inactive) | 4.1 µM (inactive) | 4.84 µM (inactive) | 8.28 µM (inactive) | 4.26 µM (inactive) | 2.99 µM (inactive) | 17.3 µM (inactive) | 5.25 µM (inactive) | 7.29 µM (inactive) | 2.89 µM (inactive) | 11.1 µM (inactive) | 3.94 µM (inactive) | 10.3 µM (inactive) | 4.72 µM (inactive) | 8.99 µM (inactive) | 16.1 µM (inactive) | 5.96 µM (inactive) | 13.6 µM (inactive) | 11.2 µM (inactive) |  |
| c1csc(-c2ccsc2-c2cccs2)c1 | > 100 µM (inactive) | > 100 µM (inactive) | 52.2 µM (inactive) | > 100 µM (inactive) | 53.7 µM (inactive) | > 100 µM (inactive) | 52.8 µM (inactive) |  | 47.6 µM (inactive) | 11.9 µM (inactive) | 13.3 µM (inactive) | 80.9 µM (inactive) | > 100 µM (inactive) | 16.8 µM (inactive) | 44.9 µM (inactive) | > 100 µM (inactive) | 98.9 µM (inactive) | > 100 µM (inactive) | > 100 µM (inactive) |  |
| CC[C@H](C)[C@H]1NC(=O)[C@@H](NC(=O)[C@@H](CC(C)C)N(C)C(=O)C2CCCN2C(=O)[C@H](C)O)[C@@H](C)OC(=O)[C@H](Cc2ccccc2)N(C)C(=O)[C@@H]2CCCN2C(=O)[C@H](CC(C)C)NC(=O)[C@@H](C)C(=O)[C@H](C(C)C)OC(=O)C[C@@H]1O (some centres undefined) | < 0.00625 µM (active) | < 0.00625 µM (active) | < 0.00625 µM (active) | < 0.00625 µM (active) | < 0.00625 µM (active) | < 0.00625 µM (active) | < 0.00625 µM (active) | < 0.00625 µM (active) | < 0.00625 µM (active) | < 0.00625 µM (active) | < 0.00625 µM (active) | < 0.00625 µM (active) | < 0.00625 µM (active) | < 0.00625 µM (active) | < 0.00625 µM (active) | < 0.00625 µM (active) | < 0.00625 µM (active) | < 0.00625 µM (active) | < 0.00625 µM (active) | < 0.00625 µM (active) |
| COc1ccccc1-c1cc(O)c2ccc(C)nc2n1 |  | > 100 µM (inactive) | 54.1 µM (inactive) | > 100 µM (inactive) | > 100 µM (inactive) | 32.8 µM (inactive) | > 100 µM (inactive) | 58.9 µM (inactive) | 42.6 µM (inactive) | > 100 µM (inactive) | > 100 µM (inactive) |  | > 100 µM (inactive) | > 100 µM (inactive) | > 100 µM (inactive) | > 100 µM (inactive) |  | > 100 µM (inactive) | > 100 µM (inactive) | > 100 µM (inactive) |
| Cc1c2c(n3c(nc4ccccc43)c1C#N)N(c1ccc(F)cc1)CC2 | > 100 µM (inactive) | > 100 µM (inactive) | > 100 µM (inactive) | > 100 µM (inactive) | > 100 µM (inactive) | > 100 µM (inactive) | 71.1 µM (inactive) |  |  |  | > 100 µM (inactive) | > 100 µM (inactive) | > 100 µM (inactive) |  | > 100 µM (inactive) | > 100 µM (inactive) | > 100 µM (inactive) | 74.5 µM (inactive) | > 100 µM (inactive) | > 100 µM (inactive) |
| O=C(/C(=C(/Br)I)c1ccccc1)c1ccccc1 | 18.2 µM (inactive) | 38.5 µM (inactive) | 17.6 µM (inactive) | 14.3 µM (inactive) | 13.6 µM (inactive) | 18.8 µM (inactive) | 40.1 µM (inactive) | 14.4 µM (inactive) | 19.5 µM (inactive) | 15.2 µM (inactive) | 50.4 µM (inactive) | 19.1 µM (inactive) | 48.6 µM (inactive) | 7.1 µM (inactive) | 16.8 µM (inactive) | 17.2 µM (inactive) | 14.6 µM (inactive) | 38.5 µM (inactive) | 27.2 µM (inactive) |  |
| CC1(C)C=C(/C=N/Nc2ccccc2)C(C#N)=C(O)C1(C#N)C#N | > 100 µM (inactive) | > 100 µM (inactive) | 74.1 µM (inactive) | > 100 µM (inactive) | > 100 µM (inactive) | 28.5 µM (inactive) | > 100 µM (inactive) | 56.5 µM (inactive) | > 100 µM (inactive) | 57.7 µM (inactive) | > 100 µM (inactive) | 92.7 µM (inactive) | > 100 µM (inactive) | 52.5 µM (inactive) | > 100 µM (inactive) | > 100 µM (inactive) | > 100 µM (inactive) | > 100 µM (inactive) | > 100 µM (inactive) |  |
| CC(C)(C)OC(=O)NC(Cc1ccc(OCc2ccccc2)cn1)C(N)=O (centres undefined) | > 100 µM (inactive) | > 100 µM (inactive) | > 100 µM (inactive) | > 100 µM (inactive) | > 100 µM (inactive) | > 100 µM (inactive) | > 100 µM (inactive) | > 100 µM (inactive) | > 100 µM (inactive) | > 10 µM (inactive) | 86.5 µM (inactive) | > 100 µM (inactive) | > 100 µM (inactive) | > 100 µM (inactive) | > 100 µM (inactive) | > 100 µM (inactive) | 26 µM (inactive) |  | > 100 µM (inactive) |  |
| C=C(Cl)CN1c2ccccc2C=Cc2ccccc21 | 14.2 µM (inactive) | 10 µM (inactive) | 12.8 µM (inactive) | 29.7 µM (inactive) | 17.6 µM (inactive) | 22.3 µM (inactive) | 53.3 µM (inactive) |  | 11 µM (inactive) |  | > 100 µM (inactive) | 3.61 µM (inactive) | 19.9 µM (inactive) |  | 13 µM (inactive) | 18 µM (inactive) | 7.23 µM (inactive) | 15.9 µM (inactive) | 48.3 µM (inactive) | 18.7 µM (inactive) |
| COc1ccc2c(c1)/C(=C(\C(Cl)=C(\Cl)N1CCCCC1)[N+](=O)[O-])N2 | > 100 µM (inactive) | > 100 µM (inactive) | 59.2 µM (inactive) | > 100 µM (inactive) | > 100 µM (inactive) | > 100 µM (inactive) | > 100 µM (inactive) | 42.1 µM (inactive) | > 100 µM (inactive) | 27.2 µM (inactive) | > 100 µM (inactive) | > 100 µM (inactive) | > 100 µM (inactive) |  | 64 µM (inactive) |  | 45.9 µM (inactive) | > 100 µM (inactive) | > 100 µM (inactive) |  |
| CCOC(=O)Cn1c(C(F)(F)F)nc2nc(Cl)c(Cl)nc21 | > 76.9 µM (inactive) | 3.12 µM (inactive) | 40 µM (inactive) | 3.8 µM (inactive) |  | 24.7 µM (inactive) | 25 µM (inactive) | 26.7 µM (inactive) | 15.3 µM (inactive) | 26.6 µM (inactive) | 27 µM (inactive) | 27.9 µM (inactive) | > 100 µM (inactive) | 6.58 µM (inactive) | 27.8 µM (inactive) | > 55.7 µM (inactive) | 27.3 µM (inactive) | 49.1 µM (inactive) | 61.4 µM (inactive) | 24.7 µM (inactive) |
| C[N+]1(C)CCc2cc(O)c(O)cc2C1Cc1ccc(O)c(O)c1 (centres undefined) | 40.6 µM (inactive) | 50.9 µM (inactive) | > 100 µM (inactive) | > 100 µM (inactive) |  | 27.1 µM (inactive) | 86.9 µM (inactive) | 34 µM (inactive) | > 100 µM (inactive) | 23 µM (inactive) | > 100 µM (inactive) | 63.7 µM (inactive) | > 100 µM (inactive) | 22.2 µM (inactive) | 39.9 µM (inactive) | 50.4 µM (inactive) | 48.2 µM (inactive) | > 100 µM (inactive) | 94.8 µM (inactive) | 1.11 µM (active) |
| N=C(N)c1ccc(C(NC(=O)CNS(=O)(=O)c2ccc3ccccc3c2)P(=O)(Oc2ccccc2)Oc2ccccc2)cc1 (centres undefined) | 36.8 µM (inactive) | 67.5 µM (inactive) | > 100 µM (inactive) | > 100 µM (inactive) | > 100 µM (inactive) | 29.6 µM (inactive) | 35.2 µM (inactive) | 50 µM (inactive) | 47.4 µM (inactive) | 21 µM (inactive) | > 100 µM (inactive) | > 100 µM (inactive) | 32.6 µM (inactive) | 46.3 µM (inactive) | > 100 µM (inactive) | 14.1 µM (inactive) | 39.1 µM (inactive) | 61.9 µM (inactive) |  | > 100 µM (inactive) |
| Cc1cccc(NC(=S)Nc2ccc(Cl)cc2)n1 | > 100 µM (inactive) | > 100 µM (inactive) | > 100 µM (inactive) | > 100 µM (inactive) | > 100 µM (inactive) | > 100 µM (inactive) | > 100 µM (inactive) | > 100 µM (inactive) | 3.1 µM (inactive) | > 100 µM (inactive) | > 100 µM (inactive) | > 100 µM (inactive) |  | > 100 µM (inactive) | > 100 µM (inactive) | > 100 µM (inactive) | > 100 µM (inactive) | > 100 µM (inactive) | > 100 µM (inactive) | > 100 µM (inactive) |
| CN(C)c1c(Cl)c(=O)oc2c1ccc1nc(-c3ccccc3)sc12 | > 100 µM (inactive) | > 100 µM (inactive) | > 100 µM (inactive) | > 100 µM (inactive) | > 100 µM (inactive) | > 100 µM (inactive) | > 100 µM (inactive) | > 100 µM (inactive) | > 100 µM (inactive) | > 100 µM (inactive) | > 100 µM (inactive) | > 100 µM (inactive) | > 100 µM (inactive) | > 100 µM (inactive) | 55.3 µM (inactive) | > 100 µM (inactive) | > 100 µM (inactive) |  | > 100 µM (inactive) |  |
